Data as given in patent publication US20060069132A1, “Azolecarboxamide herbicides” (priority 2004, published 2006).

Assays:
[1] = system: barnyardgrass; experiment: Test A pre-/postemergence herbicide test; type: in vivo, Echinochloa crus-galli
Procedure, shortened: (§1)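 Both application timings were run together: directed soil spray over freshly planted seeds in sandy loam, and runoff spray onto 2–10 cm seedlings. Evaluation after ~10 days in greenhouse used a 0–100 visual scale versus untreated controls.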

[2] = system: morningglory; experiment: Test A pre-/postemergence herbicide test; type: in vivo, Ipomoea spp.
Procedure, shortened: as §1

[3] = system: bermudagrass; experiment: Test C pre-/postemergence herbicide test; type: in vivo, Cynodon dactylon; conditions: for Bermudagrass plant response rating: 500 g ai/ha
Procedure, shortened: (§2)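 Emerged plants at the 1- to 4-leaf stage (2–18 cm), or freshly planted seeds, received test chemicals in a non-phytotoxic solvent mixture with surfactant. Response was visually scored against controls after 12 to 14 days in the greenhouse, on a 0 (no effect) to 100 (complete control) scale.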

[4] = system: corn; experiment: Test C pre-/postemergence herbicide test; type: in vivo, Zea mays; conditions: for Corn plant response rating: 500 g ai/ha
Procedure, shortened: as §2

[5] = system: large crabgrass; experiment: Test C pre-/postemergence herbicide test; type: in vivo, Digitaria sanguinalis; conditions: for Crabgrass, Large plant response rating: 500 g ai/ha
Procedure, shortened: as §2

[6] = system: giant foxtail; experiment: Test C pre-/postemergence herbicide test; type: in vivo, Setaria faberi; conditions: for Foxtail, Giant plant response rating: 500 g ai/ha
Procedure, shortened: as §2

[7] = system: kochia; experiment: Test C pre-/postemergence herbicide test; type: in vivo, Kochia scoparia; conditions: for Kochia plant response rating: 500 g ai/ha
Procedure, shortened: as §2

[8] = system: morningglory; experiment: Test C pre-/postemergence herbicide test; type: in vivo, Ipomoea coccinea; design: key to Plant response rating, Morningglory: 0 = no effect, 100 = complete control; conditions: for Morningglory plant response rating: Preemergence, 500 g ai/ha, scale 0 to 100, 0 no effect, 100 complete control
Procedure, shortened: as §2

[9] = system: common ragweed; experiment: Test C pre-/postemergence herbicide test; type: in vivo, Ambrosia elatior; design: key to Plant response rating, Ragweed: 0 = no effect, 100 = complete control; conditions: for Plant response rating (0 = no effect, 100 = complete control), Ragweed: 62 g ai/ha; for Plant response rating (0 = no effect, 100 = complete control), Ragweed / Plant response rating, Ragweed: preemergence; for Plant response rating, Ragweed: 125 g ai/ha, scale 0 (no effect) to 100 (complete control), visual, 12 to 14 days; for Ragweed plant response rating: Preemergence, 500 g ai/ha, scale 0 to 100, 0 no effect, 100 complete control
Procedure, shortened: as §2

[10] = system: common (oilseed) sunflower; experiment: Test C pre-/postemergence herbicide test; type: in vivo, Helianthus annuus; conditions: for Plant response rating (0 = no effect, 100 = complete control), Sunflower: 62 g ai/ha; for Plant response rating (0 = no effect, 100 = complete control), Sunflower / Plant response rating, Sunflower: preemergence; for Plant response rating, Sunflower: 125 g ai/ha, scale 0 (no effect) to 100 (complete control), visual, 12 to 14 days; for Sunflower plant response rating: Preemergence, 500 g ai/ha, scale 0 to 100, 0 no effect, 100 complete control
Procedure, shortened: as §2

[11] = system: rice; experiment: Test C flooded paddy test; type: in vivo, Oryza sativa; conditions: for Plant response rating, Rice: 500 g ai/ha, visual rating after 12 to 14 days
Procedure, shortened: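 Injury scored visually against controls on a 0 (no effect) to 100 (complete control) scale, 12 to 14 days after treatment in greenhouse. Flooded paddy plants treated at 2-leaf stage; postemergence plants at 1- to 4-leaf stage, 2 to 18 cm tall.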

[12] = system: smallflower umbrella sedge; experiment: Test C flooded paddy test; type: in vivo, Cyperus difformis; conditions: for Plant response rating, Sedge, Umbrella: 500 g ai/ha, visual rating after 12 to 14 days
[13] = system: ducksalad; experiment: Test C flooded paddy test; type: in vivo, Heteranthera limosa; conditions: for Plant response rating, Ducksalad: 500 g ai/ha, visual rating after 12 to 14 days
[14] = Postemergence, 500 g ai/ha, 0 to 100 scale, 0 no effect, 100 complete control
[15] = Postemergence, 2000 g ai/ha, 0 to 100 scale, 0 no effect, 100 complete control
[16] = Preemergence, 500 g ai/ha, visual rating, 0 to 100 scale (0 no effect, 100 complete control)
[17] = Preemergence, 2000 g ai/ha, visual rating, 0 to 100 scale (0 no effect, 100 complete control)
[18] = 125 g ai/ha, scale 0 (no effect) to 100 (complete control), visual, 12 to 14 days, preemergence
[19] = 250 g ai/ha, scale 0 to 100 (0 no effect, 100 complete control), visual, 12 to 14 days, preemergence
[20] = Postemergence, 250 g ai/ha, scale 0 to 100, 0 no effect, 100 complete control
[21] = Preemergence, scale 0 to 100, 0 no effect, 100 complete control
[22] = postemergence, 125 g ai/ha, scale 0 to 100
[23] = postemergence, 62 g ai/ha, scale 0 to 100
[24] = 62 g ai/ha, scale 0 to 100 (0 no effect, 100 complete control)
[25] = 125 g ai/ha, scale of 0 to 100, 0 is no effect, 100 is complete control
[26] = 250 g ai/ha, scale of 0 to 100, 0 is no effect, 100 is complete control
[27] = scale 0 to 100 (0 no effect, 100 complete control)
[28] = Postemergence, 250 g ai/ha, 0 to 100 scale, 0 no effect, 100 complete control
[29] = Postemergence, 1000 g ai/ha, 0 to 100 scale, 0 no effect, 100 complete control
[30] = Preemergence, 1000 g ai/ha, visual rating, 0 to 100 scale (0 no effect, 100 complete control)
[31] = preemergence, 250 g ai/ha, visual injury, 0 to 100 scale (0 no effect, 100 complete control)
[32] = 125 g ai/ha, scale 0 to 100 (0 no effect, 100 complete control)

With `CCn1nc(C(C)(C)C)cc1C(=O)Nc1cccc(C(C)=NO)c1` [Compound 108] the “Barnyardgrass plant response rating” value [1, 14] was 85, the “Plant response rating, Barnyardgrass” value [1, 15] was 100 and the “Barnyardgrass plant response rating” value [1, 16] was 85. The “Barnyardgrass plant response rating” value [1, 17] was 90, the “Morningglory plant response rating” value [2, 14] was 40 and the “Plant response rating, Morningglory” value [2, 15] was 40. The “Morningglory plant response rating” value [2, 16] was 30, the “Morningglory plant response rating” value [2, 17] was 75 and the “Plant response rating (0 = no effect, 100 = complete control), Bermudagrass” value ([3]; 62 g ai/ha, preemergence) was 100. The “Plant response rating, Bermudagrass” value [3, 18] was 100, the “Plant response rating, Bermudagrass” value [3, 19] was 100 and the “Bermudagrass plant response rating” value ([3]; Postemergence, scale 0 to 100) was 80. The “Plant response rating, Bermudagrass” value [3, 20] was 60, the “Bermudagrass plant response rating” value [3, 21] was 100 and the “Plant response rating, Bermudagrass” value [3, 22] was 30. The “Plant response rating, Bermudagrass” value [3, 23] was 30, the “Plant response rating (0 = no effect, 100 = complete control), Corn” value ([4]; 62 g ai/ha, preemergence) was 30 and the “Plant response rating, Corn” value [4, 18] was 40. The “Plant response rating, Corn” value [4, 19] was 50, the “Corn plant response rating” value ([4]; Postemergence, scale 0 to 100) was 60 and the “Plant response rating, Corn” value [4, 20] was 50. For the same compound, the “Corn plant response rating” value [4, 21] was 50, the “Plant response rating, Corn” value [4, 22] was 50 and the “Plant response rating, Corn” value [4, 23] was 50. For the same compound, the “Plant response rating (0 = no effect, 100 = complete control), Crabgrass, Large” value ([5]; 62 g ai/ha, preemergence) was 100, the “Plant response rating, Crabgrass, Large” value [5, 18] was 100 and the “Plant response rating, Crabgrass, Large” value [5, 19] was 100. The “Crabgrass, Large plant response rating” value ([5]; Postemergence, scale 0 to 100) was 100, the “Plant response rating, Crabgrass, Large” value [5, 20] was 70 and the “Crabgrass, Large plant response rating” value [5, 21] was 100. The “Plant response rating, Crabgrass, Large” value [5, 22] was 70, the “Plant response rating, Crabgrass, Large” value [5, 23] was 10 and the “Plant response rating (0 = no effect, 100 = complete control), Foxtail, Giant” value ([6]; 62 g ai/ha, preemergence) was 100. The “Plant response rating, Foxtail, Giant” value [6, 18] was 100, the “Plant response rating, Foxtail, Giant” value [6, 19] was 100 and the “Foxtail, Giant plant response rating” value ([6]; Postemergence, scale 0 to 100) was 70. The “Foxtail, Giant plant response rating” value [6, 21] was 100, the “Plant response rating, Foxtail, Giant” value [6, 22] was 50 and the “Plant response rating, Foxtail, Giant” value [6, 23] was 30. The “Plant response rating (0 = no effect, 100 = complete control), Kochia” value ([7]; 62 g ai/ha, preemergence) was 100, the “Plant response rating, Kochia” value [7, 18] was 100 and the “Kochia plant response rating” value ([7]; Postemergence, scale 0 to 100) was 90. For the same compound, the “Plant response rating, Kochia” value [7, 20] was 90, the “Kochia plant response rating” value [7, 21] was 100 and the “Plant response rating, Kochia” value [7, 22] was 80. The “Plant response rating, Kochia” value [7, 23] was 60, the “Plant response rating (0 = no effect, 100 = complete control), Morningglory” value ([8]; 62 g ai/ha, preemergence) was 40 and the “Morningglory plant response rating” value [8] was 90. For the same compound, the “Plant response rating, Morningglory” value [8, 22] was 60, the “Plant response rating, Morningglory” value [8, 23] was 30 and the “Plant response rating (0 = no effect, 100 = complete control), Ragweed” value [9] was 20. For the same compound, the “Plant response rating, Ragweed” value [9] was 20, the “Ragweed plant response rating” value [9] was 90 and the “Plant response rating (0 = no effect, 100 = complete control), Sunflower” value [10] was 20. The “Plant response rating, Sunflower” value [10] was 20, the “Sunflower plant response rating” value [10] was 20 and the “Rice plant response rating” value [11, 24] was 0. For the same compound, the “Rice plant response rating” value [11, 25] was 0, the “Rice plant response rating” value [11, 26] was 20 and the “Plant response rating, Rice” value [11, 27] was 50. For the same compound, the “Sedge, Umbrella plant response rating” value [12, 24] was 60, the “Sedge, Umbrella plant response rating” value [12, 25] was 80 and the “Sedge, Umbrella plant response rating” value [12, 26] was 80. The “Plant response rating, Sedge, Umbrella” value [12, 27] was 80, the “Ducksalad plant response rating” value [13, 24] was 50 and the “Ducksalad plant response rating” value [13, 25] was 70. The “Ducksalad plant response rating” value [13, 26] was 80 and the “Plant response rating, Ducksalad” value [13, 27] was 90.

`CCn1nc(C(C)(C)C)cc1C(=O)Nc1cccc(S(=O)(=O)C(F)(F)F)c1` [Compound 134] was tested, and the “Barnyardgrass plant response rating” value [1, 28] was 30, the “Plant response rating, Barnyardgrass” value [1, 29] was 70 and the “Barnyardgrass plant response rating” value [1, 30] was 45. The “Barnyardgrass plant response rating” value [1, 31] was 25, the “Morningglory plant response rating” value [2, 28] was 10 and the “Plant response rating, Morningglory” value [2, 29] was 20. The “Morningglory plant response rating” value [2, 30] was 30, the “Morningglory plant response rating” value [2, 31] was 5 and the “Plant response rating (0 = no effect, 100 = complete control), Bermudagrass” value ([3]; 62 g ai/ha, preemergence) was 80. For the same compound, the “Plant response rating, Bermudagrass” value [3, 18] was 95, the “Plant response rating, Bermudagrass” value [3, 19] was 95 and the “Bermudagrass plant response rating” value [3, 21] was 100. The “Plant response rating (0 = no effect, 100 = complete control), Corn” value ([4]; 62 g ai/ha, preemergence) was 0, the “Plant response rating, Corn” value [4, 18] was 0 and the “Plant response rating, Corn” value [4, 19] was 0. The “Corn plant response rating” value [4, 21] was 60, the “Plant response rating (0 = no effect, 100 = complete control), Crabgrass, Large” value ([5]; 62 g ai/ha, preemergence) was 65 and the “Plant response rating, Crabgrass, Large” value [5, 18] was 95. For the same compound, the “Plant response rating, Crabgrass, Large” value [5, 19] was 95, the “Crabgrass, Large plant response rating” value [5, 21] was 100 and the “Plant response rating (0 = no effect, 100 = complete control), Foxtail, Giant” value ([6]; 62 g ai/ha, preemergence) was 0. For the same compound, the “Plant response rating, Foxtail, Giant” value [6, 18] was 0, the “Plant response rating, Foxtail, Giant” value [6, 19] was 0 and the “Foxtail, Giant plant response rating” value [6, 21] was 85. For the same compound, the “Plant response rating (0 = no effect, 100 = complete control), Kochia” value ([7]; 62 g ai/ha, preemergence) was 85, the “Plant response rating, Kochia” value [7, 18] was 100 and the “Kochia plant response rating” value [7, 21] was 100. For the same compound, the “Plant response rating (0 = no effect, 100 = complete control), Morningglory” value ([8]; 62 g ai/ha, preemergence) was 0, the “Plant response rating, Morningglory” value [8, 18] was 0 and the “Morningglory plant response rating” value [8] was 75. The “Plant response rating (0 = no effect, 100 = complete control), Ragweed” value [9] was 0, the “Plant response rating, Ragweed” value [9] was 25 and the “Ragweed plant response rating” value [9] was 100. The “Plant response rating (0 = no effect, 100 = complete control), Sunflower” value [10] was 0, the “Plant response rating, Sunflower” value [10] was 0 and the “Sunflower plant response rating” value [10] was 0. The “Rice plant response rating” value [11, 24] was 35, the “Rice plant response rating” value [11, 32] was 45 and the “Rice plant response rating” value [11, 26] was 55. For the same compound, the “Plant response rating, Rice” value [11, 27] was 60, the “Sedge, Umbrella plant response rating” value [12, 24] was 55 and the “Sedge, Umbrella plant response rating” value [12, 32] was 75. The “Sedge, Umbrella plant response rating” value [12, 26] was 85, the “Plant response rating, Sedge, Umbrella” value [12, 27] was 85 and the “Ducksalad plant response rating” value [13, 24] was 45. For the same compound, the “Ducksalad plant response rating” value [13, 32] was 70, the “Ducksalad plant response rating” value [13, 26] was 90 and the “Plant response rating, Ducksalad” value [13, 27] was 90.
